For one compound, Ki results are on record in US7723380B2, “Antiviral protease inhibitors” (Gilead Sciences, Inc., priority 2006, dated 2010).

Where only a bound is given, the exact number is not on record here.

This assay concerns the target T1, recombinant HIV-1 protease expressed in E. Coli (Human immunodeficiency virus type 1 group M subtype B, UniProt P04585).
T1 construct: Enzyme: recombinant HIV-1 protease expressed in E. Coli; purchased Bachem California, Inc. (Torrance, Calif.) H-9040; host or cells: E. coli
Briefly: HIV-1 Protease Enzyme Assay (Ki), fluorimetric detection of hexapeptide substrate cleavage. In kind it is biochemical. The following applies: recombinant HIV-1 protease 1 to 2.5 nM, substrate 40 μM, pH 5.3, 37° C., tight-binding competitive inhibition. An excerpt:
Biological Assays Used for the Characterization of HIV Protease Inhibitors HIV-1 Protease Enzyme Assay (Ki)
The assay is based on the fluorimetric detection of synthetic hexapeptide substrate cleavage by HIV-1 protease in a defined reaction buffer as initially described by M. V. Toth and G. R. Marshall, Int. J. Peptide Protein Res. 36, 544 (1990)
Substrate: (2-aminobenzoyl)Thr-Ile-Nle-(p-nitro)Phe-Gln-Arg
Substrate supplied by Bachem California, Inc. (Torrance, Calif.; Cat. no. H-2992)
Enzyme: recombinant HIV-1 protease expressed in E. Coli
Enzyme supplied by Bachem California, Inc. (Torrance, Calif.; Cat. no. H-9040)
Reaction buffer: 100 mM ammonium acetate, pH 5.3
• 1 M sodium chloride • 1 mM ethylendiaminetetraacetic acid • 1 mM dithiothreitol • 10% dimethylsulfoxide Assay Protocol for the Determination of Inhibition Constant Ki: • 1. Prepare series of solutions containing identical amount of the enzyme (1 to 2.5 nM) and a tested inhibitor at different concentrations in the reaction buffer • 2. Transfer the solutions (190 μL each) into a white 96-well plate • 3. Preincubate for 15 min at 37° C. • 4. Solubilize the substrate in 100% dimethylsulfoxide at a concentration of 800 μM. Start the reaction by adding 10 μL of 800 μM substrate into each well (final substrate concentration of 40 μM) • 5. […]

By Ki is commonly meant a dissociation constant, usually derived from enzyme kinetics or from competition with a known ligand. In the case of `CCOP(=O)(COc1ccc(C[C@H](NC(=O)O[C@H]2CO[C@H]3OCC[C@H]32)[C@@H](O)CN(Cc2ccc(-c3ccccn3)cc2)NC(=O)[C@@H](NC(=O)OC)C(C)(C)C)cc1)OCC` [Example AY], the Ki was < 30 pM.
